These results are taken from patent EP4755891A1, “ARF1 INHIBITOR AND USE THEREOF” (AOBIO PHARMACEUTICAL CO., LTD., priority 2023, dated 2025).

“Also recorded” adds a separate entry of the source.

The subject of test [1] is NF-κB signaling pathway. As to the kind of experiment: Activation of NF-κB signaling pathway (phosphorylated P65, Western blot). The conditions noted are these: CT26 cells; FIG. 6. In kind it is cell-based, Murine. On the procedure: In this example, Compounds 3 and 9 synthesized in the above preparation examples were tested for their ability to activate the NF-κB signaling pathway, as indicated by an increase of phosphorylated P65. GCA, a known Arf1 inhibitor, was used as a positive control.
In CT26 cells treated with DMSO, GCA, Compound 3, or Compound 9, the relevant protein levels were evaluated by Western blot analysis as previously described (Wang et al., 2020).

The subject of test [2] is Mouse neuroblastoma N2A. The experiment in a line: Test for Golgi morphology abnormalities (GM130 immunofluorescence). The conditions noted are these: N2A cells; FIG. 4. In kind it is cell-based. On the procedure:
GCA, a known Arf1 inhibitor, was used as a positive control.
Mouse neuroblastoma N2A (N2a, ATCC®CCL-131™) was cultured, treated, and subjected to immunofluorescence staining as previously reported (Wang et al., 2021).

Test [3] relates to CT26 colon cancer. The experiment in a line: Inhibition of CT26 colon cancer in BALB/c mice (Example 47, 5 mg/kg). The conditions noted are these: gavaged daily, two consecutive weeks, FIG. 9 and FIG. 10. In kind it is in vivo. On the procedure: In this example, the inhibitory effects of Compounds 9, 11-3, 25, 26, 27, and DU102 on colon cancer growth were tested.
Murine CT26 cells were inoculated into the left abdomen of 6-week-old male mice at a dose of 5×10^5 cells per mouse. Approximately 7 days later, the mice were randomly divided into two groups: the control group or the compound treatment group. They were gavaged daily with either the vehicle control (ddH2O or 5% DMSO in corn oil) or 5 mg/kg of Compounds 9, 11-3, 25, 26, or 27 (dissolved in the corresponding vehicle) for two consecutive weeks. Tumor diameters were measured every 2-3 days using a digital caliper (ULINE, Cat^# H-7352), and the tumor volume was calculated using the formula ½ × longitudinal diameter (length) × maximum transverse diameter (width). When the maximum tumor volume reached 2000 mm^3, the mice were euthanized.

The test system of test [4] is CT26 colon cancer. As to the kind of experiment: Inhibition of CT26 colon cancer in BALB/c mice (Example 48, 10 mg/kg). In kind it is in vivo. The conditions noted are these: gavaged daily, two consecutive weeks, FIG. 11. As to the method:
In this example, the inhibitory effects of Compounds 28, 30, 31, 33, 34, and DU102 synthesized in the above preparation examples on the growth of colon cancer were tested.
Murine CT26 cells were inoculated into the left abdomen of 6-week-old male mice at a dose of 5×10^5 cells per mouse. Approximately 7 days later, the mice were randomly divided into two groups: the control group or the compound treatment group. The mice were gavaged daily with either the vehicle control (ddH2O or 5% DMSO in corn oil) or 10 mg/kg of Compounds 28, 30, 31, 33, 34, and DU102 (dissolved in the corresponding vehicle) for two consecutive weeks. Tumor diameters were measured every 2-3 days using a digital caliper (ULINE, Cat^# H-7352), and the tumor volume was calculated using the formula ½ × longitudinal diameter (length) × maximum transverse diameter (width). When the maximum tumor volume reached 3000 mm^3, the mice were euthanized.

Test [5] deals with T1, Arf1 (Homo sapiens, UniProt P84077).
T1 construct: endogenous in cells; host or cells: Huh-7 liver cancer cells (lysate)
T1 sequence (P84077 whole entry): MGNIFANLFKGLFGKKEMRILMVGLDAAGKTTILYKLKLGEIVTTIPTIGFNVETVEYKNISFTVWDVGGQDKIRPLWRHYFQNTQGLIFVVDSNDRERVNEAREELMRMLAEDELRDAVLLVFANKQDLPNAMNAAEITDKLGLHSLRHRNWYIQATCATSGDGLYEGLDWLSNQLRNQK
The experiment in a line: Inhibition test of Arf1 activation (Active Arf1 pull-down and detection kit, Western blot). In kind it is cell-based. To be noted: lysate of liver cancer Huh-7 cells; GTP-bound Arf1; FIG. 3. As to the method: In this example, the inhibitory ability of Compounds 3 and 9 synthesized in the above preparation examples on Arf1 activation was tested. The Pierce Active Arf1 Pull-Down and Detection Kit (Thermo Scientific, Cat#16121) was used with the lysate of liver cancer Huh-7 cells to detect the activated Arf1. It is a complete kit that selectively enriches and detects GTP-bound Arf1 GTPase through specific protein interactions with the GGA3 protein-binding domain.
A general note: Immunoblotting shows a protein as a band on a membrane.

For test [6], the system named is Drosophila orthotopic tumors. As to the kind of experiment: Inhibition of orthotopic tumor growth in Drosophila. In kind it is in vivo. To be noted: 5 µM in food, 4 days; Ras^V12-PMML clones; FIG. 7. As to the method: In this example, the inhibitory effects of Compounds 3 and 9 synthesized in the above preparation examples on the growth of Drosophila orthotopic tumors were tested. As previously described, renal stem cell tumor clusters were induced by expressing Ras in Drosophila renal stem cell (Ras^V12-PMML) clones (Singh et al., 2016). The Drosophila carrying Ras^V12-PMML clones were cultured with normal food at room temperature for 4 days to allow tumor growth. They were then switched to food containing the indicated drugs for an additional 4 days, followed by feeding the Drosophila carrying Ras^V12-PMML with normal food containing DMSO or 5 µM Compound 3 or Compound 9. In the indicated groups, the number of esg>GFP + tumor cells per 5×10^3 µm^2 area was quantified to characterize tumor size.

Test [7] deals with CCL5. As to the kind of experiment: Upregulation of chemokine CCL5 expression (quantitative RT-PCR). It counts as cell-based, Murine. To be noted: CT26 cells; FIG. 5. As to the method: In this example, the upregulation of chemokine CCL5 expression induced by the treatment of Compounds 3 and 9 synthesized in the above preparation examples was tested. Quantitative RT-PCR was used to measure the expression level of chemokine CCL5 in CT26 cells treated with DMSO, Compound 3, or Compound 9.

For `Fc1cc(F)c2c(c1)[C@H]1C=CC[C@H]1C(c1cccnc1)N2` (stereo partly shown) [GCA, reference compound], the “phosphorylation level of P65” value in test [1] is recorded as “increase the phosphorylation level of P65”. Moreover, in test [2], the “Golgi morphology (Golgi apparatus defects, distribution of Golgi marker GM130)” value is given as “effectively induce morphological changes in the Golgi apparatus”. As for `Cn1cnc2cc(Nc3ncnc4sc5c(c34)CCN(C(=O)c3ccc(Cl)s3)C5)ccc21` [Compound 26, (5-Chlorothiophen-2-yl)(4-((1-methyl-1H-benzo[d]imidazol-5-yl)amino)-5,8-dihydropyrido[4',3':4,5]thieno[2,3-d]pyrimidin-7(6H)-yl)methanone], the “inhibition of CT26 colon cancer” value in test [3] is “effectively inhibit CT26 colon cancer”.

For `Cc1nc2cc(Nc3ncnc4sc5c(c34)CCCCCC5)ccc2[nH]1` [Compound 31, N-(2-Methyl-1H-benzo[d]imidazol-5-yl)-5,6,7,8,9,10-hexahydrocycloocta[4,5]thieno[2,3-d]pyrimidin-4-amine], the “inhibition of CT26 colon cancer” value in test [4] is on record as “effectively inhibit CT26 colon cancer”.

Consider `Cc1nc2ccc(Nc3ncnc4scc(C)c34)cc2[nH]1` [Compound 25, 5-Methyl-N-(2-methyl-1H-benzo[d]imidazol-6-yl)thieno[2,3-d]pyrimidin-4-amine], for which the “inhibition of CT26 colon cancer” value in test [3] is recorded as “effectively inhibit CT26 colon cancer”. Consider `Cc1nc2cc(/C=N/Nc3ncnc4sc5c(c34)CCCCCC5)ccc2[nH]1` [Compound 33, (E)-4-(2-((2-Methyl-1H-benzo[d]imidazol-5-yl)methylene)hydrazinyl)-5,6,7,8,9,10-hexahydrocycloocta[4,5]thieno[2,3-d]pyrimidine], for which the “inhibition of CT26 colon cancer” value in test [4] was “effectively inhibit CT26 colon cancer”. In the case of `CC(=O)N1CCc2c(sc3ncnc(Nc4ccc5nc(C)[nH]c5c4)c23)C1` [Compound 30, 1-(4-((2-Methyl-1H-benzo[d]imidazol-6-yl)amino)-5,8-dihydropyrido[4',3':4,5]thieno[2,3-d]pyrimidin-7(6H)-yl)ethanone], the “inhibition of CT26 colon cancer” value in test [4] is “effectively inhibit CT26 colon cancer”. For `Cc1nc2ccc(Nc3ncnc4sc5c(c34)CCNC5)cc2[nH]1` [Compound 28, N-(2-Methyl-1H-benzo[d]imidazol-6-yl)-5,6,7,8-tetrahydropyrido[4',3':4,5]thieno[2,3-d]pyrimidin-4-amine], the “inhibition of CT26 colon cancer” value in test [4] is on record as “effectively inhibit CT26 colon cancer”. On to “N-(1H-Indol-5-yl)-methylthieno[2,3-d]pyrimidin-4-amine [Compound 3]”, for which the “inhibition of Arf1 activation” value in test [5] is “effectively inhibit the activation of Arf1; also recorded: effective inhibitors”. Besides, the “orthotopic tumor growth in Drosophila” value in test [6] is “effectively inhibit orthotopic tumor growth”. Also, the “phosphorylation level of P65” value in test [1] is “increase the phosphorylation level of P65”. The “expression of the chemokine CCL5” value in test [7] was “effectively promote the expression”. Also, the “Golgi morphology (Golgi apparatus defects, distribution of Golgi marker GM130)” value in test [2] is given as “induce Golgi apparatus defects; also recorded: effectively induce morphological changes in the Golgi apparatus”.
